Measured values taken from ChEMBL document CHEMBL1201862, “PubChem BioAssay data set” (2004).
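96-well plates; 48 h exposure; 5 concentrations. Endpoints by linear interpolation between flanking doses. Not reached: highest tested concentration assigned. At the GI50, growth is halved.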 Active and inactive are the calls of the source. Cut-off read from the data, not from the text of the source: active = GI50 up to about 1.1 µM and inactive = higher.

How the values were obtained:
Test in all cases: growth of human tumour cells (NCI), 48 h
OVCAR-8 = test system: OVCAR-8
NCI-H522 = test system: NCI-H522
NCI-H226 = test system: NCI-H226
KM12 = test system: KM12
SK-MEL-5 = test system: SK-MEL-5
HL-60 = test system: HL-60
U-251 = test system: U-251
SNB-19 = test system: SNB-19
HCC 2998 = test system: HCC 2998
SF-295 = test system: SF-295
SN12C = test system: SN12C
HCT-116 = test system: HCT-116
IGROV-1 = test system: IGROV-1
SW-620 = test system: SW-620
EKVX = test system: EKVX
OVCAR-5 = test system: OVCAR-5
COLO 205 = test system: COLO 205
SK-OV-3 = test system: SK-OV-3
LOX IMVI = test system: LOX IMVI
RPMI-8226 = test system: RPMI-8226

Measured: GI50

Cc1ccc(S(=O)(=O)NC(=O)NC2=NC(C)(C)N(c3ccc(Cl)c(Cl)c3)C(N)=N2)cc1
inactive: OVCAR-8 9.89 µM | NCI-H522 > 100 µM | NCI-H226 67.8 µM | KM12 65.8 µM | SK-MEL-5 18.3 µM | HL-60 29.5 µM | U-251 5.68 µM | SNB-19 97.9 µM | HCC 2998 15.9 µM | SF-295 41.5 µM | SN12C 20.6 µM | HCT-116 3.72 µM | IGROV-1 19 µM | SW-620 4.66 µM | EKVX > 100 µM | OVCAR-5 > 100 µM | COLO 205 10.2 µM | SK-OV-3 > 100 µM

Cc1ccccc1NC(=O)C(=O)C(C1OC(=O)c2ccccc21)[N+](=O)[O-] (stereo not given)
inactive: OVCAR-8 > 100 µM | LOX IMVI > 100 µM | NCI-H522 56.9 µM | NCI-H226 > 100 µM | KM12 > 100 µM | SK-MEL-5 > 100 µM | HL-60 > 100 µM | U-251 > 100 µM | SNB-19 > 100 µM | HCC 2998 > 100 µM | SF-295 > 100 µM | SN12C > 100 µM | RPMI-8226 > 100 µM | HCT-116 > 100 µM | IGROV-1 > 100 µM | SW-620 > 100 µM | EKVX > 100 µM | OVCAR-5 > 100 µM | COLO 205 > 100 µM | SK-OV-3 > 100 µM

Cc1ccc(OP2(=O)Oc3ccc4ccccc4c3CN2c2ccc(Cl)cc2)cc1C (stereo not given)
inactive: OVCAR-8 > 100 µM | LOX IMVI > 100 µM | NCI-H522 > 100 µM | NCI-H226 > 100 µM | KM12 > 100 µM | SK-MEL-5 > 100 µM | HL-60 > 100 µM | U-251 > 100 µM | SNB-19 > 100 µM | HCC 2998 > 100 µM | SF-295 > 100 µM | SN12C > 100 µM | RPMI-8226 > 100 µM | HCT-116 > 100 µM | IGROV-1 > 100 µM | SW-620 > 100 µM | EKVX > 100 µM | OVCAR-5 > 100 µM | COLO 205 > 100 µM | SK-OV-3 > 100 µM

S=C(NCCCCCCNC(=S)Nc1c2ccccc2nc2ccccc12)Nc1c2ccccc2nc2ccccc12
inactive: OVCAR-8 89.9 µM | LOX IMVI 72.4 µM | NCI-H522 64.6 µM | NCI-H226 10.8 µM | KM12 10.9 µM | SK-MEL-5 > 93.1 µM | HL-60 77.1 µM | U-251 > 91.8 µM | SNB-19 > 83 µM | HCC 2998 > 96.2 µM | SF-295 68.4 µM | SN12C > 83.8 µM | RPMI-8226 95.5 µM | HCT-116 50.6 µM | IGROV-1 > 81.5 µM | SW-620 52.8 µM | EKVX > 100 µM | OVCAR-5 > 84.1 µM | COLO 205 50.5 µM | SK-OV-3 > 100 µM

COc1ccccc1-c1cc(O)c2c(C)ccnc2n1
inactive: OVCAR-8 43.6 µM | LOX IMVI 37.9 µM | NCI-H522 15.8 µM | NCI-H226 15.8 µM | KM12 27.7 µM | SNB-19 26.3 µM | HCC 2998 64.9 µM | SN12C 41 µM | RPMI-8226 59.8 µM | IGROV-1 > 100 µM | SW-620 6.1 µM | EKVX 37 µM | OVCAR-5 52.4 µM | COLO 205 19.5 µM | SK-OV-3 23 µM

CC(=O)OC1CCC2(C)C(=CCC3C2CCC2(C)C3CC3OC4(CCC(C)CN4)C(C)C32)C1 (stereo not given)
inactive: OVCAR-8 > 100 µM | LOX IMVI > 100 µM | NCI-H522 > 100 µM | NCI-H226 > 100 µM | KM12 > 100 µM | SK-MEL-5 > 100 µM | HL-60 > 100 µM | U-251 > 100 µM | SNB-19 > 100 µM | SF-295 > 100 µM | SN12C > 100 µM | RPMI-8226 > 100 µM | HCT-116 > 100 µM | IGROV-1 > 100 µM | SW-620 > 100 µM | EKVX > 100 µM | OVCAR-5 > 100 µM | COLO 205 > 100 µM | SK-OV-3 > 100 µM

CC(C)N/C(N)=N/C#N
inactive: OVCAR-8 > 100 µM | LOX IMVI > 100 µM | NCI-H522 > 100 µM | NCI-H226 > 100 µM | KM12 > 100 µM | HL-60 > 100 µM | SNB-19 > 100 µM | HCC 2998 > 100 µM | SF-295 > 100 µM | SN12C > 100 µM | RPMI-8226 > 100 µM | HCT-116 > 100 µM | IGROV-1 > 100 µM | SW-620 > 100 µM | EKVX > 100 µM | OVCAR-5 > 100 µM | COLO 205 > 100 µM | SK-OV-3 > 100 µM
